Results on seven compounds are retold here after patent US20260049078A1, “DIFLUORO- AND TRIFLUORO-ACETYL HYDRAZIDES AS SELECTIVE HDAC6 INHIBITORS” (ITALFARMACO S.P.A., priority 2022, published 2026).

One series addresses zHDAC6-CD2 wt (Danio rerio (Zebrafish) (Brachydanio rerio), UniProt F8W4B7). The experiment in a line: Isolation of long-lived/tight complex (spin column chromatography with LC-HRMS). It counts as binding. As to conditions: zHDAC6-CD2 wt 1 μM, compound 5 μM, 6 hours, Bio-Spin P-6. How it is done:
Rapid chromatography on spin columns coupled to LC-HRMS was used to attempt the isolation of long-lived/tight complexes between HDAC6 and examples 1 and 1-A. zHDAC6-CD2 wt (1 μM) was incubated with 1 (5 μM) or 1-A (also 5 μM) as described before for 6 hours. An aliquot (60 μL) was loaded on a Bio-Spin P-6 Gel Column (Bio-Rad) that had been equilibrated with assay buffer in order to separate the HDAC6-inhibitors complexes from free compounds. After centrifugation to elute the initial fraction containing most of the enzyme, ten 200 μL aliquots were applied and eluted by centrifugation to collect the low molecular weight (free) compounds. Aliquots of the fractions were subjected to LC-HRMS analysis (as described above) for identification and quantitation of 1 and its derivatives.

Another series deals with recombinant human HDAC6 (Homo sapiens (Human), UniProt Q9UBN7). Put plainly: Enzyme inhibitory activity assay on HDAC6. It counts as biochemical. The settings on record: 30 minutes preincubation at 25° C. How it is done: (§1) For each test compound, 100× concentrated DMSO solutions at 8 doses were prepared and then diluted in assay buffer (25 mM Tris-HCl, pH 8, 130 mM NaCl, 0.05% Tween-20, 10% Glycerol) to obtain 5× concentrated solutions in relation to the final concentrations (typical final concentration range—6.4-200000 nM or 0.18-50000 nM, final DMSO content—1%). Then 10 μL solution of each test compound concentration were placed on a 96-well plate in triplicate and 15 μL of 3.33× concentrated enzyme solution in the assay buffer containing 3.33× concentrated BSA (final BSA concentration 1 mg/mL) and, in case of HDAC6, 3.33× concentrated TCEP (final TCEP concentration—200 μM) were added to each well. After a period of preincubation at 25° C. (30 minutes for HDAC6 and 120 minutes for HDAC1), 25 μL of solution containing the substrate were added. As substrate, FLUOR DE LYS® deacetylase substrate (Enzo Life Sciences, cat: BML-KI104, FdL), FLUOR DE LYS®-Green substrate (Enzo Life Sciences, cat: BML-KI572, FdL_G) or Boc-Lys(Tfa)-AMC (Bachem, cat: 4060676.005, Tfal)—2× concentrated solution in assay buffer were used. Following a reaction period (30 minutes at 25° C.), 50 μL of the development solution consisting of concentrate FLUOR DE LYS® developer I (Enzo Life Sciences, ca: BML-KI105), diluted 200 times in buffer (50 mM Tris-HCl, pH 8, 137 mM NaCl, 2.7 mM KCl, 1 mM MgCl2) plus 2 μM TSA was added and, after 25 minutes at room temperature in the dark, using the Victor 1420 Multilabel Counter Perkin Elmer Wallac instrument, the fluorescence reading was carried out (excitation/emission: 485/535 nM—Fluor de Lys Green, 355/460 nM—Tfal, Fluor de Lys).
recombinant human HDAC6, sequence (Q9UBN7 whole entry): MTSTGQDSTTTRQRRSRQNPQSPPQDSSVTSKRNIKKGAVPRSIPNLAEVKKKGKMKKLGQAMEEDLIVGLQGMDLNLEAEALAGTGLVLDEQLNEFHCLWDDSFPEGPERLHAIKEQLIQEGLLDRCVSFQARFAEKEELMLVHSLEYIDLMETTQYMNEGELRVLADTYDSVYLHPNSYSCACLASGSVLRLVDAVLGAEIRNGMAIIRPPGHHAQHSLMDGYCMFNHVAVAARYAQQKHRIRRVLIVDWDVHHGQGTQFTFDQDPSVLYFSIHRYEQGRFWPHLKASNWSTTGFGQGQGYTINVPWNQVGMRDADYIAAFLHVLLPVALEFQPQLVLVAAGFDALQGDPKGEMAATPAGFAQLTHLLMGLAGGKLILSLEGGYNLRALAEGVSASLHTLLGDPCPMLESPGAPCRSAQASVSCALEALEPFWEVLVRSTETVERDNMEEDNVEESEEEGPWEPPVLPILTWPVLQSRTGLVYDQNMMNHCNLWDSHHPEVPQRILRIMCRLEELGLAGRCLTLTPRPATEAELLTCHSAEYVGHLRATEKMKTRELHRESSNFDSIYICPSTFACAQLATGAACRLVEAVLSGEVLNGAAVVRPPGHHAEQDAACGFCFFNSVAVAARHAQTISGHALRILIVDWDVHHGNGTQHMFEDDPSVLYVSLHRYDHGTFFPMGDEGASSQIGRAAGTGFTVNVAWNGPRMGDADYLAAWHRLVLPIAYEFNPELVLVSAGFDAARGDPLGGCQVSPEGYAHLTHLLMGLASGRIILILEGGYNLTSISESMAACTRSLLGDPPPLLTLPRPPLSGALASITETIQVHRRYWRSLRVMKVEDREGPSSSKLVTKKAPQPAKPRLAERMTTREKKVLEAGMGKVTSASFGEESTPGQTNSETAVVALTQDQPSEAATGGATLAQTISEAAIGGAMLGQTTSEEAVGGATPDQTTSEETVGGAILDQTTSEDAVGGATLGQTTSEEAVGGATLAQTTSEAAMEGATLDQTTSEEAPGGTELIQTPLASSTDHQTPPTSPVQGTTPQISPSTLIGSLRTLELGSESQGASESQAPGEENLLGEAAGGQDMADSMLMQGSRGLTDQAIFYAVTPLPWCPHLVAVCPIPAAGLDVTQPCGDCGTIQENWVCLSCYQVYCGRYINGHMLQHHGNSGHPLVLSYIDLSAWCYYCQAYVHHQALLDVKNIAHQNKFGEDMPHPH
(§2) Enzymatic activity on recombinant human HDAC6 and HDAC1 was evaluated (Table 2) for each synthesized compound.

The target of a further series is recombinant human HDAC1 (Homo sapiens (Human), UniProt Q13547). Put plainly: Enzyme inhibitory activity assay on HDAC1. The class given is biochemical. The settings on record: 120 minutes preincubation at 25° C. How it is done:
as §1, §2

Series [1] relates to human B cell precursor leukemia 697. The experiment in a line: In vitro α-tubulin acetylation in 697 cell line. It counts as cell-based. The settings on record: Homo sapiens, B-cell, 16 h; read-out: TubAc 697 cells EC50. How it is done: The in vitro α-tubulin acetylation was evaluated on human B cell precursor leukemia 697.
The 697 cells were maintained in RPMI Medium 1640 (Gibco, cat: 21875-034) supplemented with 10 mM HEPES (Gibco, cat: 15630-080), Pen-Strep (Penicillin 100 U/ml, Streptomycin 100 μg/ml, Gibco, cat: 15140-122) and 10% fetal bovine serum (Gibco, cat: 10270-106).
The cells were plated in 12-well plates (Costar, cat: 3512) at the density of 5.5×10^5 cells/ml.
Serial dilutions of test compounds in DMSO were prepared using 20 mM stock solutions to obtain 8 doses 200× concentrated in respect to final doses (2.7-100000 nM). Then the DMSO solutions were diluted 10× in culture medium to obtain 20× concentrated solutions which were used for cells treatment (125 μl of medium solutions were added to 2.375 ml of cells suspension). The final DMSO content was set as 0.5%. The plates were incubated at 37° C., 5% CO2 for 16 hours.
At the end of the incubation period, the cells were harvested and centrifuged for 5 minutes at 200×g and washed with 0.9% NaCl at 4° C. The resulting pellet was treated for 30 minutes at 4° C. with 100 μl Complete Lysis-M buffer containing protease inhibitors (Complete Lysis-M Roche+Complete Tablets, Mini Easypack, cat: 4719956001) and phosphatase inhibitor cocktails (PhosStop Easypack, Roche, cat: 4906837001) and then centrifuged 10 minutes at 18213×g. The protein concentration in each supernatant was determined using BCA Protein Assay Kit (Pierce, cat: 23227). The samples were diluted in PBS 1× to obtain 2 μg/ml concentration and coated in MaxiSorp 96-well plates (Nunc, cat: 442404). The plates were incubated overnight at room temperature.
Plates were washed twice with Wash Buffer (PBS 1×+0.005% tween 20) and saturated for 1 hour at room temperature with 300 μL of 1×PBS containing 10% FBS. After washing twice with Wash Buffer, the plates were incubated for 2 hours at room temperature in the presence of 100 μl/well either anti-acetylated-α-tubulin antibody (Monoclonal Anti-Tubulin, Acetylated antibody produced in mouse, Sigma-Aldrich, cat: T6793) or total anti-α-tubulin antibody (Monoclonal Anti-α-Tubulin produced in mouse, Sigma-Aldrich, cat: T6074) diluted 1:1000 in 1×PBS containing 10% FBS. Following 5 washing cycles with Wash Buffer the secondary antibody conjugated with the enzyme HRP (Goat anti-Mouse IgG, IgM, IgA (H+L), stock concentration 0.5 mg/ml, Thermo Fisher Scientific, cat: A10668), diluted 1:1000 in 1×PBS+10% FBS was added at the volume of 100 μl/well. After two hours of incubation at room temperature the plates were washed 4 times with Wash Buffer, then 100 μl/well of TMB substrate (TMB substrate kit, Thermo Fisher Scientific, cat: 34021) was added for 10 minutes at room temperature in the dark. The reaction was stopped by adding 50 μl of 2M H2SO4. The plates were read in BioTek Synergy H1 multimode microplate reader at a wavelength of 450 nm.
The measured absorbance was corrected by subtracting the mean of blank values (samples without the primary antibody). The absorbance ratios of acetyl to total tubulin assays were calculated and normalized to the reference compound (positive control) 4 parameter logistic curve, where 0% is the fitted bottom and 100% is the fitted top of the curve. The results are expressed as relative EC50.

Another series deals with SH-SY5Y cells. Put plainly: In vitro α-tubulin acetylation in undifferentiated SH-SY5Y cells. The settings on record: overnight, @1uM. It counts as cell-based. How it is done:
SH-SY5Y cells (ATCC, cod. CRL-2266) are plated in optical optimized 96-well black plates (Perkin Elmer, cod. 6055302) at 5000 cells/well in 100 μl/well of growth medium (DMEM/F12 (1:1)+10 mM hepes+100 units/mL of penicillin+100 μg/mL of streptomycin+10% of inactivated Foetal calf serum (FCS, Hyclone)).
After 24 h of seeding, cells are incubated overnight with the selected molecules at 0.1-1-10 μM. ACY1083 and Tubastatin A, at the same doses, are tested as positive controls of α-Tubulin acetylation, while untreated cells are incubated with 0.01% DMSO and indicated as CTRL DMSO.
At the end of the incubation, cells are fixed adding 100 μL/well of formaldehyde 8% in PBS (final formaldehyde concentration 4% in 200 μL/well) directly in the 100 μL/well of medium, for 30 min at RT. The fixing solution is carefully removed, and wells are washed twice with PBS for 10 min each. Fixed cells are kept in PBS at 4° C. until staining.
The day of the staining experiment, the fixed cells are incubated 60 min with the blocking buffer (PBS with 5% FCS+0.3% Triton™ X-100). While blocking, primary antibodies are prepared by diluting 1:200 the α-Tubulin Alexa Fluor 488 Conjugate (Cell Signaling, cod. 5063) antibody and 1:50 Acetyl-α-Tubulin Alexa Fluor 647 Conjugate (Cell Signaling, cod. 81502) antibody in the Antibody Dilution Buffer (PBS with 1% BSA+0.3% Triton™ X-100). Once the blocking solution is aspirated, the diluted primary antibodies are applied and incubated overnight at 4° C. The next day, cells are rinsed twice with PBS (10 min each), incubated 5 min with 300 nM DAPI in PBS, and then rinsed twice with PBS (10 min each). For each treatment, 3 wells are stained.
Images of the stained cells are acquired by means of the IN Cell Analyzer 2500 HS Instrument, using: far red channel for Acetyl-α-Tubulin staining (exposure 0.02 sec), green channel for α-Tubulin staining (exposure 0.02 sec), and blue channel for DAPI (nuclei) staining. For each well, 10 images are acquired.
Images of stained cells are analysed with the InCarta software (Molecular Devices) for obtaining fluorescence intensity considering whole cells. For each treatment, mean values of Cell intensity—Bckg (Cell), for both staining, are obtained using the InCarta raw data by FOV (Field of View). Results are expressed as fold increase of the ratio of acetylated tubulin and total tubulin towards control (CTRL DMSO).

In another series the test system is HDAC6. Put plainly: Kinetic of prodrug disappearing when incubated with HDAC6 (LC-HRMS). It counts as biochemical. The settings on record: HDAC6 1 μM, 5 μM compound, 25° C. How it is done:
The LC-HRMS analysis was carried out using a Vanquish Flex UHPLC (Thermo Fisher Scientific) and a high-resolution mass spectrometer Orbitrap QExactive Focus (Thermo Fisher Scientific), equipped with a Heated Electrospray Ionization, operated in positive mode. A Full Scan analysis was set in the m/z range 50-500 amu. A XSelect HSS T3 50×2.1 mm, 2.5 μm chromatographic column (Waters) was used. Mobile phase A consisted of 0.1% formic acid in water and mobile phase B in 0.1% formic acid in acetonitrile. The flow rate was set to 0.5 mL/min, with a gradient program from 3 to 20% B in 3 minutes.

recombinant human HDAC1, sequence (Q13547 whole entry): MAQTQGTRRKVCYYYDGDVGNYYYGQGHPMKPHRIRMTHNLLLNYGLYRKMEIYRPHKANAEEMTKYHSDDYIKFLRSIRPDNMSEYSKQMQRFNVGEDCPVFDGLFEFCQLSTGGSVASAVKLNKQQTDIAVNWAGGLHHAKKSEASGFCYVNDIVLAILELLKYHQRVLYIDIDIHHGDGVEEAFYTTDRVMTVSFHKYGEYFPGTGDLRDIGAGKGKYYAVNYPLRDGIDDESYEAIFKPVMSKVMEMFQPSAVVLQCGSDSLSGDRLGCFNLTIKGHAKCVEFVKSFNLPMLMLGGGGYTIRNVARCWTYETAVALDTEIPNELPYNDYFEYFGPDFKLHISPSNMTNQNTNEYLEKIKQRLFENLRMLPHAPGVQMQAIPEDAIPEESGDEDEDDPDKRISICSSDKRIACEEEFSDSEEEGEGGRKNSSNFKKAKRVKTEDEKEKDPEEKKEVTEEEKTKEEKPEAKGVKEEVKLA
zHDAC6-CD2 wt, sequence (F8W4B7 entry or part of it del 1-439/del 799-1081 limits assumed): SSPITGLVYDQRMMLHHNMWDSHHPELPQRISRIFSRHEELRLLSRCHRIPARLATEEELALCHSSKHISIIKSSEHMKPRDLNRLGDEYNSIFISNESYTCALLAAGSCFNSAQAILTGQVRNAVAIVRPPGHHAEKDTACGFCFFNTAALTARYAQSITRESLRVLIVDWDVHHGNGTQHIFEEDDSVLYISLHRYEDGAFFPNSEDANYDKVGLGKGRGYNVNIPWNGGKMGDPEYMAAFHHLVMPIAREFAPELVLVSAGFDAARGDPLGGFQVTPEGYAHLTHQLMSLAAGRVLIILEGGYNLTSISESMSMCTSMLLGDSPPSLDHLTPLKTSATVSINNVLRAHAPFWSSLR

For the compound `O=C(NNC(=O)C(F)F)c1ccc(Cn2cc(-c3ccc(NC4=NCCN4)cc3)nn2)cc1` [Compound 1, N′-(2,2-difluoroacetyl)-4-((4-(4-((4,5-dihydro-1H-imidazol-2-yl)amino)phenyl)-1H-1,2,3-triazol-1-yl)methyl)benzohydrazide], the “co-elution with the enzyme (fraction 1)” value on zHDAC6-CD2 wt is recorded as “co-elutes with the enzyme”.

A word on the IC50: it is the midpoint of a concentration-inhibition curve. The term EC50 denotes the concentration needed to bring the measured effect to its halfway point. Consider `FC(F)c1nnc(-c2ccc(Cn3cc(-c4ccc5[nH]ccc5c4)nn3)nc2)o1` [Compound 27-A], for which the IC50 on recombinant human HDAC6 was 15 nM; at recombinant human HDAC1, greater than 100000 nM. For the same compound, the concentration giving a half-maximal response (EC50) in series [1] was 119 nM.

`FC(F)c1nnc(-c2ccc(Cn3cc(-c4cccc5[nH]ncc45)nn3)nc2)o1` [Compound 34-A]: the IC50 on recombinant human HDAC6 is 20 nM; on recombinant human HDAC1, greater than 100000 nM. For the same compound, in series [1], the EC50 amounted to 167 nM.

Regarding `Fc1cc(-c2nnc(C(F)F)o2)ccc1Cn1cc(-c2cccc3[nH]ccc23)nn1` [Compound 36-A], the results for the IC50 on recombinant human HDAC6 and at recombinant human HDAC1 were 54 nM and greater than 100000 nM, respectively. The EC50 in series [1] is 167 nM.

Regarding `CC(c1ccc(-c2nnc(C(F)F)o2)cn1)n1cc(-c2ccc(N)nc2)nn1` (stereo not shown) [Compound 39-A], the IC50 on recombinant human HDAC6 is 14 nM; on recombinant human HDAC1 it was greater than 100000 nM. Moreover, the EC50 in series [1] was 320 nM. Moreover, in the series on SH-SY5Y cells, the “TubAc SH-SY5Y cells fold increase of the ratio of acetylated tubulin and total tubulin towards control” value is given as 6.5 fold.

For the compound `Fc1cc(-c2nnc(C(F)F)o2)cnc1Cn1cc(-c2cccc3[nH]ccc23)nn1` [Compound 40-A], the IC50 at recombinant human HDAC6 was 44 nM; at recombinant human HDAC1 it was greater than 100000 nM. Further, in series [1], the EC50 amounted to 849 nM.

Regarding `Nc1ccc(-c2cn(Cc3ccc(-c4nnc(C(F)F)o4)cc3)nn2)cn1` [Compound 45-A], the figures for the IC50 on recombinant human HDAC6 and at recombinant human HDAC1 were 26 nM and greater than 100000 nM, respectively. The “percentage of compound concentration (prodrug remaining)” value with HDAC6 (time 0 min) is reported as 100.00%; in the series with HDAC6 (time 30 min) it was 79.9%; in the series with HDAC6 (time 60 min), 73.7%; in the series with HDAC6 (time 120 min), 47.8%; with HDAC6 (time 240 min), 22.6%; in the series on HDAC6 (time 360 min), 11.6%. In the series on HDAC6 (time 480 min), the “percentage of compound concentration (prodrug remaining)” value is recorded as 5.2%. Besides, the half-life at 5 µM in the series on HDAC6 (HDAC6 enzyme in assay buffer, read-out: T1/2 of prodrug disappearing) worked out at 1.89 h. Also, in series [1], the EC50 was 664 nM.
